Laboratory results taken from DBAASP.
≈ marks a conversion by molar mass, not a printed value. Where “and” joins values, the source holds several entries; their conditions need not be identical. Equal entries are not always repeated.

Tests used:
Assay in all cases: ≥ marks a high value that may be exact or a test limit, other limits are often not marked, values filed in µg/mL are converted to µM
[1] = tested on: Staphylococcus epidermidis ATCC 12228
[2] = tested on: Micrococcus luteus ATCC 4698
[3] = tested on: Staphylococcus aureus ATCC 6538
[4] = tested on: Escherichia coli DH5alpha
[5] = tested on: Lactococcus lactis subsp. cremoris I116
[6] = tested on: Staphylococcus aureus CIP 677
[7] = tested on: Enterococcus faecium ATCC 700221
[8] = tested on: Pseudomonas aeruginosa ATCC 27853
[9] = tested on: Staphylococcus aureus ATCC 33591
[10] = tested on: Staphylococcus aureus ATCC 25923
[11] = tested on: Candida albicans ATCC 200955
[12] = tested on: Candida albicans 820
[13] = tested on: Escherichia coli ML-35p
[14] = tested on: Listeria monocytogenes EGD
[15] = tested on: Escherichia coli ATCC 25922
[16] = tested on: Alcaligenes faecalis ATCC 8750
[17] = tested on: Bacillus thuringiensis
[18] = tested on: Salmonella enterica subsp. arizonae ATCC 13314
[19] = tested on: Micrococcus luteus A270
[20] = tested on: Escherichia coli SBS 363
[21] = tested on: Candida albicans MDM8
[22] = tested on: Klebsiella pneumoniae ATCC 13883
[23] = tested on: Staphylococcus aureus CCT 6538
[24] = tested on: Bacillus subtilis CCT 2471
[25] = tested on: Candida albicans
[26] = tested on: Staphylococcus saprophyticus
[27] = tested on: Escherichia coli CCT 1371
[28] = tested on: Bacillus subtilis ATCC 6633
[29] = tested on: Candida albicans KCTC 7965
[30] = tested on: Staphylococcus epidermidis KCTC 1917
[31] = tested on: Bacillus subtilis KCTC 3068
[32] = tested on: Pseudomonas aeruginosa KCTC 1637
[33] = tested on: Staphylococcus aureus KCTC 1621
[34] = tested on: Escherichia coli KCTC 1682
[35] = tested on: Salmonella typhimurium KCTC 1926

## CC(C)C[C@H](NC(=O)[C@H](CC(C)C)NC(=O)[C@H](CCCCN)NC(=O)[C@H](CO)NC(=O)[C@H](CC(C)C)NC(=O)[C@H](C)NC(=O)[C@H](CCCCN)NC(=O)[C@H](Cc1ccccc1)NC(=O)[C@@H](NC(=O)[C@H](C)NC(=O)CNC(=O)[C@H](CC(C)C)NC(=O)[C@@H](N)Cc1ccccc1)C(C)C)C(=O)O [FLGAVFKALSKLL]
[1]
  MIC: 12.8 µM (≈ 18 µg/mL)
[2]
  MIC: 4.27 µM (≈ 6 µg/mL)
[3]
  MIC: 7.82 µM (≈ 11 µg/mL)
[4]
  MIC: 21.3 µM (≈ 30 µg/mL)

## CC(C)C[C@H](NC(=O)[C@H](CC(C)C)NC(=O)[C@H](CCCCN)NC(=O)[C@H](CO)NC(=O)[C@H](CC(C)C)NC(=O)[C@H](C)NC(=O)[C@H](CCCCN)NC(=O)[C@H](Cc1ccccc1)NC(=O)[C@H](CC(C)C)NC(=O)[C@H](C)NC(=O)[C@H](CCCCN)NC(=O)[C@H](CC(C)C)NC(=O)[C@@H](N)Cc1ccccc1)C(=O)O [FLKALFKALSKLL]
[1]
  MIC: 6.7 µM (≈ 10 µg/mL)
[2]
  MIC: 2.68 µM (≈ 4 µg/mL)
[3]
  MIC: 4.02 µM (≈ 6 µg/mL)
[4]
  MIC: 16.8 µM (≈ 25 µg/mL)

## CC[C@H](C)[C@H](NC(=O)CN)C(=O)N[C@@H](Cc1c[nH]c2ccccc12)C(=O)NCC(=O)N[C@H](C(=O)N[C@@H](CC(C)C)C(=O)N[C@@H](C)C(=O)N[C@@H](CCCCN)C(=O)N[C@H](C(=O)NCC(=O)N[C@H](C(=O)N[C@@H](CCCCN)C(=O)N[C@@H](C)C(=O)N[C@H](C(=O)N1CCC[C@H]1C(=O)N[C@@H](CCCN=C(N)N)C(=O)N[C@H](C(=O)N[C@H](C(=O)N[C@@H](CO)C(=O)N[C@@H](CCSC)C(=O)N[C@@H](CC(C)C)C(=O)N[C@@H](CCCCN)C(=O)N[C@@H](CCCCN)C(=O)N[C@@H](CCCCN)C(=O)N[C@@H](CCC(N)=O)C(=O)O)[C@@H](C)CC)C(C)C)C(C)C)[C@@H](C)CC)[C@@H](C)CC)[C@@H](C)O [GIWGTLAKIGIKAVPRVISMLKKKQ]
[5]
  MIC: 4 µM (≈ 10.9 µg/mL)
[6]
  MIC: 8 µM (≈ 21.9 µg/mL)

## CC[C@H](C)[C@H](NC(=O)[C@H](CCCN=C(N)N)NC(=O)[C@H](CCCCN)NC(=O)[C@H](CC(C)C)NC(=O)[C@H](CC(C)C)NC(=O)CN)C(=O)N[C@@H](CCCCN)C(=O)N[C@@H](CCCCN)C(=O)N[C@@H](CC(C)C)C(=O)N[C@@H](CC(C)C)C(N)=O [GLLKRIKKLL]
[7]
  MIC: ≥ 66.3 µM
[8]
  MIC: 28.4 µM (≈ 33.5 µg/mL)
[9]
  MIC: ≥ 256 µM
[10]
  MIC: 4.23 µM (≈ 5 µg/mL)
[11]
  MIC: ≥ 85.3 µM

## CC[C@H](C)[C@@H]1NC(=O)[C@H](CCCN=C(N)N)NC(=O)[C@@H]2CSSC[C@@H]3NC(=O)[C@H](C(C)C)NC(=O)CNC(=O)[C@H](Cc4ccccc4)NC(=O)[C@H](Cc4ccc(O)cc4)NC(=O)[C@H](C(C)C)NC(=O)[C@H](CCC(=O)O)NC(=O)[C@H](CC(C)C)NC(=O)CNC(=O)[C@H](CC(C)C)NC(=O)[C@H](CSSC[C@H](NC(=O)[C@H](CCCN=C(N)N)NC(=O)[C@H](CCCN=C(N)N)NC(=O)[C@H](C)NC(=O)[C@H](CC(C)C)NC(=O)[C@H](CCCN=C(N)N)NC(=O)CNC(=O)[C@H](Cc4cnc[nH]4)NC(=O)[C@H](CC(C)C)NC(=O)[C@H](Cc4ccccc4)NC3=O)C(=O)N[C@H](C(=O)N[C@@H](CCCN=C(N)N)C(=O)O)CSSC[C@H](NC(=O)[C@@H](NC(=O)[C@H](CCCN=C(N)N)NC(=O)[C@@H](N)CCCN=C(N)N)[C@@H](C)CC)C(=O)N[C@@H](CCCN=C(N)N)C(=O)N2)NC(=O)[C@H](CCCN=C(N)N)NC(=O)CNC1=O [RRICRCRIGRCLGLEVYFGVCFLHGRLARRCCR]
[12]
  MIC: 2.3 µM and 4.5 µM
[13]
  MIC: 1.6 µM and 3.5 µM
[14]
  MIC: 1.3 µM and 1.8 µM

## CC[C@H](C)[C@H](NC(=O)[C@H](CC(C)C)NC(=O)[C@H](CO)NC(=O)[C@H](CC(C)C)NC(=O)[C@H](CC(C)C)NC(=O)[C@@H](N)CO)C(=O)N[C@@H](CCCN=C(N)N)C(=O)N[C@@H](CCCCN)C(=O)N[C@@H](CC(C)C)C(=O)N[C@H](C(=O)N[C@H](C(N)=O)[C@@H](C)O)[C@@H](C)CC [SLLSLIRKLIT]
[15]
  MIC: 40 µM (≈ 50.2 µg/mL)
[16]
  MIC: ≥ 40 µM
[17]
  MIC: 20 µM (≈ 25.1 µg/mL)
[18]
  MIC: 25 µM (≈ 31.4 µg/mL)
[19]
  MIC: 0.8 µM (≈ 1 µg/mL)
[20]
  MIC: 1.6 µM (≈ 2.01 µg/mL)
[21]
  MIC: 0.8 µM (≈ 1 µg/mL)
[22]
  MIC: ≥ 40 µM
[23]
  MIC: 4 µM (≈ 5.02 µg/mL)
[24]
  MIC: 8 µM (≈ 10 µg/mL)
[8]
  MIC: 1.6 µM (≈ 2.01 µg/mL)
[25]
  MIC: 20 µM (≈ 25.1 µg/mL)
[26]
  MIC: 20 µM (≈ 25.1 µg/mL)
[27]
  MIC: 20 µM (≈ 25.1 µg/mL)
[28]
  MIC: 6.2 µM (≈ 7.78 µg/mL)

## CC(C)C[C@H](NC(=O)[C@H](Cc1ccccc1)NC(=O)CNC(=O)[C@H](Cc1c[nH]c2ccccc12)NC(=O)[C@H](Cc1c[nH]c2ccccc12)NC(=O)[C@H](Cc1c[nH]c2ccccc12)NC(=O)CNC(=O)[C@H](Cc1ccccc1)NC(=O)[C@H](CCCN=C(N)N)NC(=O)[C@H](CCCN=C(N)N)NC(=O)[C@@H](N)C(C)C)C(=O)N[C@@H](CCCN=C(N)N)C(=O)N[C@@H](CCCN=C(N)N)C(=O)O [VRRFGWWWGFLRR]
[29]
  MIC: 17.6 µM (≈ 32 µg/mL)
[30]
  MIC: 4.39 µM (≈ 8 µg/mL)
[31]
  MIC: 8.78 µM (≈ 16 µg/mL)
[32]
  MIC: ≥ 35.1 µM
[33]
  MIC: 8.78 µM (≈ 16 µg/mL)
[34]
  MIC: 17.6 µM (≈ 32 µg/mL)
[35]
  MIC: 17.6 µM (≈ 32 µg/mL)
